Source: ChEMBL document CHEMBL1150952, “Isolation, identification, and biological activity of isopersin, a new compound from avocado idioblast oil cells” (1998)

Experiments:
Spodoptera exigua [1] = experiment: Insecticidal activity against early instar Spodoptera exigua assessed as mortality at 500 ug/g after 7 days by artificial diet bioassay relative to control; assay type: functional
Spodoptera exigua [2] = experiment: Insecticidal activity against early instar Spodoptera exigua assessed as larval weight at 500 ug/g after 7 days by artificial diet bioassay; assay type: functional

Compound	Activity (Spodoptera exigua [1])	Activity (Spodoptera exigua [2])
CCCCC/C=C\C/C=C\CCCCCCCC(=O)C[C@@H](O)COC(C)=O	80%	
CCCCC/C=C\C/C=C\CCCCCCCC(=O)CC(CO)OC(C)=O (stereo not drawn) [ISOPERSIN]	12%	26.45 mg
